# Results as given in patent US20240277730A1, “SUPPRESSION OF COVID-19 REPLICATION BY COVID-19 ENTRY INHIBITORS” (Board of Regents of the University of Nebraska, priority 2021, published 2024).
# What was measured:
# [1] = tested on: SARS-COV-2 Scotland variant (linage: B.1.222); assay: microbe, parasite or virus in culture; format: cell-based; conditions: Severe acute respiratory syndrome coronavirus 2, Calu-3
# [2] = tested on: SARS-COV-2 South Africa variant (linage: B.1.351); assay: microbe, parasite or virus in culture; format: cell-based; conditions: Severe acute respiratory syndrome coronavirus 2, Calu-3; read-out: IC50, South African (B.1.351) variant
Compound,IC50 [1] [nM],IC50 [2] [nM]
"CN1C(=O)c2ccccc2[S+]([O-])c2cc([N+](=O)[O-])ccc2S1(=O)=O (stereo not shown) [formula (Ia), 6-methyl-2-nitrodibenzo[d,g]-[1,6,2]dithiazocin-7(6H)-one 5,5, 12-trioxide]",2640,9270
"O=C1Nc2cc(C(F)(F)F)ccc2Oc2ccsc21 [formula (IIa), 7-(trifluoromethyl)benzo[b]-thieno[2,3-f][1,4]oxazepin-10(9H)-one]",1390,3000
